Source: patent US20240197701A1, “ANDROGEN RECEPTOR INHIBITION TO TREAT SEPSIS AND SHOCK” (priority 2021, published 2024)
Where two headings read alike, the source gives them in different places.

Columns and labels:
COVID-19 [1] = test: Proxalutamide treatment for hospitalized COVID-19 patients, double-blinded placebo-controlled trial, preliminary report; type: in vivo; conditions: n = 294
COVID-19 [2] = tested on: COVID-19
SARS-COV-2 [3] = conditions: cited from earlier work
COVID-19 [4] = conditions: cited from earlier work
COVID-19 [5] = conditions: single case, after starting proxalutamide; cited from earlier work
SARS-COV-2 [6] = conditions: for Resolution of Symptoms Odds ratio / Viral Clearance Odds ratio: multivariate logistic regression, within 7 days, azithromycin with the listed drug(s), hydroxychloroquine = reference, N = 475; for Resolution of Symptoms Odds ratio: except anosmia, ageusia; for Increase in viral clearance rate: first 7 days of therapy; for Increase in viral clearance rate / Increase in symptom resolution rate: versus control; for Increase in symptom resolution rate: first week of therapy; for Viral clearance at seven days in men: spironolactone compared to dutasteride; for Odds ratio for viral clearance within seven days when used with nitazoxanide: multivariate analysis; for Adverse events: short duration administration
SARS-COV-2 [7] = conditions: dutasteride 0.5 mg per day, male patients; cited from earlier work
[8] = in vivo; cited from earlier work
COVID-19 [9] = conditions: intensive care observational series; cited from earlier work
COVID-19 [10] = conditions: RECOVERY platform trial; cited from earlier work
COVID-19 [11] = conditions: 5 mg daily, without achieving statistical significance; cited from earlier work

## CC1(C)C(=O)N(c2ccc(C#N)c(C(F)(F)F)c2F)C(=S)N1c1ccc(CCCc2ncco2)nc1 [proxalutamide]
COVID-19 [1]; hospitalized COVID-19 patients, proxalutamide 300 mg q.d.
  Mortality (%) Day 14: 3.7%
COVID-19 [1]
  Discharged (%) Day 14: 89.1%
  Full clinical remission (%) Day 14: 75.9%
  HFO, NIV, or MV use, or death (%) Day 14: 4.8%
  Hospital Length Stay (Days) Mean ± SD: 6.3 ± 5.3 days
  Hospital Length Stay (Days) Median (IQR): 5.0 days
  Improvement in clinical status - Ordinary scale (days) One point Mean ± SD: 3.0 ± 5.5 days
  Improvement in clinical status - Ordinary scale (days) One point Median (IQR): 1.0 days
  Improvement in clinical status - Ordinary scale (days) Two points Mean ± SD: 5.5 ± 7.1 days
  Improvement in clinical status - Ordinary scale (days) Two points Median (IQR): 3.0 days
  New mechanical ventilation (MV) or Death (%) Day 14: 4.4%
  No HFO or NIV use (%) Day 14: 95.2%
  No oxygen use (%) Day 14: 92.5%
COVID-19 [2]; COVID-19 8-point ordinal scale
  28-day median ordinal scale score: 1
COVID-19 [2]; COVID-19 8-point ordinal scale, intention-to-treat, proxalutamide 300 mg/day
  14-day median ordinal scale score: 1
COVID-19 [2]; alive hospital discharge
  Median post-randomization time to recovery: 5 days
COVID-19 [2]; alive hospital discharge (scores 1, 2), intention-to-treat
  14-day recovery rate: 81.4%
COVID-19 [2]; during the study period
  Less likely to die than patients in the control group: 84%
COVID-19 [2]; human, in vivo
  Median hospitalization time (days): eight
  Treatment emergent adverse events: limited to diarrhea
COVID-19 [2]; increased until day 11
  Difference in the proportion of alive hospital discharge: 75%
COVID-19 [2]; intention-to-treat
  28-day all-cause mortality rate: 11.0%
COVID-19 [2]; over 28 days, versus placebo
  Hazard ratio for all-cause mortality (death): 0.16
  Risk ratio for death: 0.22
COVID-19 [2]; over twenty-eight days
  Number needed to treat (NNT) to prevent one death: 3
COVID-19 [2]; proxalutamide arm
  Adverse events grades 4 or 3: 2.2%
  Diarrhea: 16.1%
  Irritability: 1.3%
COVID-19 [2]; versus placebo
  14-day recovery ratio: 2.28
  28-day recovery ratio: 1.81
  Higher recovery rate than placebo at 28 days: 81%
  Higher recovery rate than placebo at day 14: 128%
SARS-COV-2 [3]; men
  Viral clearance at seven days in men: 81%
SARS-COV-2 [3]; women
  Viral clearance at seven days in women: 85%
COVID-19 [4]; compared to usual care
  Reduction of the risk of hospitalization: 91%
COVID-19 [4]; proxalutamide 200 mg for up to seven days, men
  30-day hospitalization rate: 2.2%
COVID-19 [5]
  Time to striking symptom resolution and laboratory improvement: twenty-four

## Ivermectin
SARS-COV-2 [6]
  Resolution of Symptoms Odds ratio: 1.45
  Viral Clearance Odds ratio: 0.32

## C[C@]12C=CC(=O)N[C@@H]1CC[C@@H]1[C@@H]2CC[C@]2(C)[C@@H](C(=O)Nc3cc(C(F)(F)F)ccc3C(F)(F)F)CC[C@@H]12 [dutasteride]
SARS-COV-2 [6]
  Increase in viral clearance rate: 320%
  Increase in symptom resolution rate: 70%
  Viral clearance at seven days in men: 21%
  Adverse events: no adverse events noted
SARS-COV-2 [6]; with nitazoxanide
  Odds ratio for viral clearance within seven days when used with nitazoxanide: 7.1
SARS-COV-2 [6]; nitazoxanide male users
  Viral clearance at seven days among nitazoxanide male users: 21%
SARS-COV-2 [7]
  Viral clearance at seven days: 64.3%
[8]
  Half-life: five

## CC(=O)Oc1ccccc1C(=O)Nc1ncc([N+](=O)[O-])s1 [Nitazoxanide]
SARS-COV-2 [6]
  Resolution of Symptoms Odds ratio: 2.08
  Viral Clearance Odds ratio: 1.88
SARS-COV-2 [6]; two times a day for 6 days combined with azithromycin
  Association with faster viral clearance: not associated faster clearance

## CC(=O)S[C@@H]1CC2=CC(=O)CC[C@]2(C)[C@H]2CC[C@@]3(C)[C@@H](CC[C@@]34CCC(=O)O4)[C@H]12 [spironolactone]
SARS-COV-2 [6]
  Increase in viral clearance rate: 320%
  Increase in symptom resolution rate: 70%
  Viral clearance at seven days in men: 40%
  Adverse events: no adverse events noted
SARS-COV-2 [6]; with nitazoxanide
  Odds ratio for viral clearance within seven days when used with nitazoxanide: 10.1
  Viral clearance at seven days, added to nitazoxanide: 42%
SARS-COV-2 [6]; spironolactone initiated at the time of COVID-19 diagnosis
  Viral clearance at seven days: 34%
SARS-COV-2 [6]; with ivermectin
  Viral clearance at seven days, added to ivermectin: 26%

## C[C@]12CCC(=O)C=C1C=C[C@@H]1[C@@H]2CC[C@@]2(C)[C@H]1CC[C@@]21CCC(=O)O1 [Canrenone]
COVID-19 [9]
  Fatalities: reduced fatalities

## COc1cc2c(c(OC)c1OC)-c1ccc(OC)c(=O)cc1[C@@H](NC(C)=O)CC2 [Colchicine]
COVID-19 [10]
  28-day mortality rate ratio: 1.01

## CCN(CCO)CCCC(C)Nc1ccnc2cc(Cl)ccc12 (stereo not shown) [Hydroxychloroquine]
SARS-COV-2 [6]
  Resolution of Symptoms Odds ratio: 1
  Viral Clearance Odds ratio: 1

## CC(C)(C)NC(=O)[C@H]1CC[C@H]2[C@@H]3CC[C@H]4NC(=O)C=C[C@]4(C)[C@H]3CC[C@]12C [finasteride]
COVID-19 [11]
  Inpatient mortality: reduced inpatient mortality
[8]
  Half-life: six
